# Publication PMC8141073, “Structurally Diverse Sesquiterpenoids with Anti-neuroinflammatory Activity from the Endolichenic Fungus Cryptomarasmius aucubae” (Natural Products and Bioprospecting, 2021)
# How the values were obtained:
# [1] = Cell viability by MTT assay; type: cell-based, murine; conditions: mouse, BV-2 microglial cells, percentage of the LPS-only treatment group, compounds at 20 μM, 1 μg/mL LPS, BV-2 cells
# Method: BV-2 murine microglial cells, acquired from Peking Union Medical College Cell Bank, were cultured in Dulbecco’s modified Eagle’s medium supplemented with 10% (v/v) heat-inactivated fetal bovine serum, penicillin (100 U/mL), and streptomycin ([…]) in carbon dioxide cell incubator. When cell growth density outnumbered 90%, BV-2 cells were seeded in 96-well plates at a density of 2 × 10^4/well, 100 μL) and incubated for 24 h. Next, the cells were treated with the compounds (DMSO as solvent) at 20 μM for 24 h in DMEM with 1 μg/mL LPS. Cells treated with DMSO alone were used as the negative control. After adding 20 μL of 10 mg/mL MTT reagent to each well, the samples were shaken lightly and incubated at 37 °C for 4 h. The supernatant was removed, the blue-purple crystals were fully dissolved in DMSO (200 μL), and the absorbance of each well was read at 570 nm (Tecan Sunrise, Switzerland). Percentage of cell viability is calculated as: (absorbance of treated well/absorbance of control well) × 100%.
# [2] = tested on: NO production induced by LPS in BV-2 microglial cells; assay: Nitric oxide (NO) production inhibitory assay (Griess reaction); type: cell-based, murine; conditions: for anti-inflammatory activity (reducing the release of NO), in words / inhibition at 20 µM: LPS-induced BV-2 microglial cells; for IC50 / inhibition at 20 µM: Mus musculus; for IC50: LPS (1 μg/mL)-induced BV-2 microglial cells, 24 h, 0.1–20.0 μM, read-out: IC50, inhibition of NO production
# Method: BV-2 cells were seeded into 96-well plates at 2 × 10^4 cells/100 μL of medium and incubated for 24 h. Then, cells were treated with 1 μg/mL of lipopolysaccharide (LPS) and various concentrations (0.1–20.0 μM) of test compounds (DMSO as solvent) for 24 h. An equal amount of DMSO and LPS were served as the controls; quercetin (J&K Scientific, Beijing, China) was taken as the positive control). The NO concentration in the medium was measured by using a Nitric Oxide Assay Kit, according to the accumulated levels of nitrite in the supernatants by a standard Griess reaction. As follows, 50 μL of the culture supernatant of BV-2 cells was reacted with 50 μL of Griess reagent I and Griess regent II successively in a 96-well plate. The absorbance at 570 nm of the mixture was measured using a microplate reader. IC50 values were calculated as the concentrations that reduced NO production by 50%. Quercetin was taken as the positive control.
SMILES,IC50 [2],"viability at 24 h, 20 µM [1]","anti-inflammatory activity (reducing the release of NO), in words [2]",inhibition at 20 µM [2]
"CC(=O)OCC1(C)CC2=C(C)C3(OC(C)=O)CCC3(C)CC2C1 (centres unmarked) [Compound 1, sterpurol D]",14.8 ± 2.23 µM,103 ± 4.73%,moderate anti-inflammatory activity,75.9%
"CC1=C2C[C@](C)(CO)C[C@@H]2C[C@@]2(C)CC[C@@]12O [Compound 4, sterpurol A]",15.3 ± 1.43 µM,98.7 ± 1.18%,moderate anti-inflammatory activity,73.1%
"CC1=CC2C(C[C@H]1O)[C@@](C)(O)CC[C@H]2C(C)C (stereo partly drawn) [Compound 7, murolane-2α, 9β-diol-3-ene]",> 20 µM,,,51.7%

# These reach a lower IC50 [2]. Values come first.
IC50 [2],SMILES,"viability at 24 h, 20 µM [1]","anti-inflammatory activity (reducing the release of NO), in words [2]",inhibition at 20 µM [2]
9.93 ± 0.99 µM,"CC(=O)O[C@@]12C[C@H](O)[C@]1(C)C[C@H]1C[C@@](C)(CO)CC1=C2C [Compound 2, sterpurol E]",97.1 ± 4%,moderate anti-inflammatory activity,85.4%
9.06 ± 1.13 µM,"CC(=O)O[C@@]12CC[C@]1(C)C[C@H]1C[C@@](C)(CO)CC1=C2C [Compound 5, sterpurol B]",107 ± 2.73%,significant anti-inflammatory activity,99.3%
11.5 ± 0.58 µM,"CC1=C2C[C@@](C)(C(=O)O)C[C@H]2C[C@](C)(O)C12CC2 [Compound 6, paneolilludinic acid]",104 ± 2.67%,moderate anti-inflammatory activity,79.1%
12.2 ± 0.4 µM,"C/C(=C\CO)CC/C=C(\C)CC[C@@H](O)C(C)(C)O [Compound 8, (–)-10,11-dihydroxyfarnesol]",99.12 ± 0.18%,moderate anti-inflammatory activity,76.8%
9.75 ± 0.79 µM,"O=c1c(O)c(-c2ccc(O)c(O)c2)oc2cc(O)cc(O)c12 [Quercetin, quercetin, reference compound]",101.5 ± 0.83%,,95.6%
